According to US20030232102A1, “Total glycosides of paeony, method to prepare the same and uses thereof” (priority 2001, published 2003):

Test system: patients with rheumatoid arthritis
Assay: Phase II clinical study: adverse (reverse) drug effects and drug toleration
Assay type: in vivo, human
Description: It was a multiple-centered, randomized, parallel, positive controlled Phrase II clinical study.
The eneral condition of patients was evaluated on each visit and follow-up survey. Patients were inquired of symptoms and signs into a 26-item list of side effect. Once a possible side effect occurred, the relevant information as time, severity, frequency, duration, method used in release and its result were recorded by the doctor. […] A second disease occurred during the study was not counted in as a side effect. Index of overall side-effect is as below:
2=upset of medium severity, interfere with the daily life of patient
3=sever unwell, obviously affect a normal daily life and may need a bed rest.
4=life threatening side effect
Investigators should score individually on drug toleration in each patient after the test base on the following criteria:
0=bear sever side effect(s) and need to halt the test
1=side effects(s) of medium severity, relevant treatments is adopted.
2=mild side effect(s), no treatment was needed

[1] = double-blind, 4 weeks, column 1
[2] = double-blind, 12 weeks, column 1
[3] = double-blind, 12 weeks, column 2
[4] = overall group, 4 weeks, column 1
[5] = overall group, 4 weeks, column 2
[6] = overall group, 4 weeks, column 3
[7] = overall group, 8 weeks, column 1
[8] = overall group, 8 weeks, column 2
[9] = overall group, 8 weeks, column 3
[10] = overall group, 12 weeks, column 1
[11] = overall group, 12 weeks, column 2
[12] = overall group, 24 weeks, column 1
[13] = overall group, 24 weeks, column 2

## CN(Cc1cnc2nc(N)nc(N)c2n1)c1ccc(C(=O)N[C@@H](CCC(=O)O)C(=O)O)cc1 [MTX, Methotrexate]
[1]
  Events of reverse drug effects: Dizziness: 3
  Events of reverse drug effects: Headache: 1
[2]
  Events of reverse drug effects: Bad appetite: 2
  Events of reverse drug effects: Dizziness: 1
  Events of reverse drug effects: Frequency of micturition: 1
  Events of reverse drug effects: Headache: 1
  Events of reverse drug effects: Lethargy: 1
  Events of reverse drug effects: Nausea: 4
[3]
  Events of reverse drug effects: Bad appetite: 2
  Events of reverse drug effects: Insomnia: 1
  Events of reverse drug effects: Nausea: 4
[4]
  Events of reverse drug effects: Abd distension: 7
  Events of reverse drug effects: Bad appetite: 27
  Events of reverse drug effects: Burning heart: 1
  Events of reverse drug effects: Constipation: 3
  Events of reverse drug effects: Diarrhea: 1
  Events of reverse drug effects: Dizziness: 6
  Events of reverse drug effects: Headache: 1
  Events of reverse drug effects: Lethargy: 1
  Events of reverse drug effects: Nausea: 14
  Events of reverse drug effects: Palpitation: 3
  Events of reverse drug effects: Stomachache: 1
  Events of reverse drug effects: Stomatitis: 2
  Events of reverse drug effects: Vomiting: 3
[5]
  Events of reverse drug effects: Abd distension: 5
  Events of reverse drug effects: Bad appetite: 3
  Events of reverse drug effects: Diarrhea: 1
  Events of reverse drug effects: Headache: 1
  Events of reverse drug effects: Nausea: 8
  Events of reverse drug effects: Stomachache: 1
[6]
  Events of reverse drug effects: Burning heart: 2
  Events of reverse drug effects: Stomachache: 1
[7]
  Events of reverse drug effects: Abd distension: 11
  Events of reverse drug effects: Bad appetite: 28
  Events of reverse drug effects: Burning heart: 3
  Events of reverse drug effects: Constipation: 3
  Events of reverse drug effects: Diarrhea: 1
  Events of reverse drug effects: Dizziness: 4
  Events of reverse drug effects: Headache: 2
  Events of reverse drug effects: Insomnia: 5
  Events of reverse drug effects: Lethargy: 2
  Events of reverse drug effects: Nausea: 16
  Events of reverse drug effects: Palpitation: 3
  Events of reverse drug effects: Stomatitis: 9
  Events of reverse drug effects: Vomiting: 2
[8]
  Events of reverse drug effects: Abd distension: 4
  Events of reverse drug effects: Bad appetite: 5
  Events of reverse drug effects: Burning heart: 1
  Events of reverse drug effects: Headache: 1
  Events of reverse drug effects: Nausea: 7
  Events of reverse drug effects: Skin rash: 1
  Events of reverse drug effects: Stomatitis: 1
  Events of reverse drug effects: Vomiting: 1
[9]
  Events of reverse drug effects: Abd distension: 1
  Events of reverse drug effects: Bad appetite: 1
  Events of reverse drug effects: Burning heart: 1
  Events of reverse drug effects: Constipation: 1
[10]
  Events of reverse drug effects: Abd distension: 15
  Events of reverse drug effects: Bad appetite: 35
  Events of reverse drug effects: Burning heart: 2
  Events of reverse drug effects: Constipation: 2
  Events of reverse drug effects: Diarrhea: 1
  Events of reverse drug effects: Dizziness: 4
  Events of reverse drug effects: Headache: 2
  Events of reverse drug effects: Insomnia: 5
  Events of reverse drug effects: Lethargy: 1
  Events of reverse drug effects: Nausea: 25
  Events of reverse drug effects: Palpitation: 2
  Events of reverse drug effects: Skin rash: 1
  Events of reverse drug effects: Stomatitis: 9
  Events of reverse drug effects: Vomiting: 3
[11]
  Events of reverse drug effects: Abd distension: 4
  Events of reverse drug effects: Bad appetite: 3
  Events of reverse drug effects: Headache: 1
  Events of reverse drug effects: Insomnia: 1
  Events of reverse drug effects: Nausea: 10
  Events of reverse drug effects: Stomatitis: 1
Overall group, 12 weeks, column 3
  Events of reverse drug effects: Burning heart: 1
[12]
  Events of reverse drug effects: Bad appetite: 3
  Events of reverse drug effects: Dizziness: 1
  Events of reverse drug effects: Headache: 2
  Events of reverse drug effects: Insomnia: 1
  Events of reverse drug effects: Nausea: 7
  Events of reverse drug effects: Vomiting: 2
[13]
  Events of reverse drug effects: Insomnia: 1
  Events of reverse drug effects: Nausea: 2
  Events of reverse drug effects: Vomiting: 1
